From publication PMC6407592, “Novel Re(I) tricarbonyl coordination compounds based on 2-pyridyl-1,2,3-triazole derivatives bearing a 4-amino-substituted benzenesulfonamide arm: synthesis, crystal structure, computational studies and inhibitory activity against carbonic anhydrase I, II, and IX isoforms†” (Journal of Enzyme Inhibition and Medicinal Chemistry, 2019)

Tests used:
hCA II = hCA II (Homo sapiens, UniProt P00918); test: stopped-flow CO2 hydrase assay, hCA II
Description: (§1) An Applied Photophysics stopped-flow instrument was used for assaying the CA catalysed CO2 hydration activity. […] In particular, CO2 was bubbled in distilled deionised water for 30 min so that the water was saturated (the concentration at a specific temperature is known from literature). In addition, a CO2 assay kit (from Sigma) was used to measure the concentration in variously diluted solutions obtained from the saturated one (which was kept at the same temperature and a constant bubbling during the experiments). […] The uncatalysed rates were determined in the same manner and subtracted from the total observed rates. Stock solutions of inhibitor (0.1 mM) were prepared in distilled-deionised water and dilutions up to 0.01 nM were done thereafter with distilled-deionised water. Inhibitor and enzyme solutions were pre-incubated together for 15 min–2 h (or longer, i.e. 4–6 h) at room temperature (at 4 °C for the incubation periods longer than 15 min) prior to assay, in order to allow for the formation of the E-I complex. […]

hCA IX = hCA IX (Homo sapiens, UniProt Q16790); test: stopped-flow CO2 hydrase assay, hCA IX
Description: An Applied Photophysics stopped-flow instrument was used for assaying the CA catalysed CO2 hydration activity. […] In particular, CO2 was bubbled in distilled deionised water for 30 min so that the water was saturated (the concentration at a specific temperature is known from literature). In addition, a CO2 assay kit (from Sigma) was used to measure the concentration in variously diluted solutions obtained from the saturated one (which was kept at the same temperature and a constant bubbling during the experiments). […] The uncatalysed rates were determined in the same manner and subtracted from the total observed rates. Stock solutions of inhibitor (0.1 mM) were prepared in distilled-deionised water and dilutions up to 0.01 nM were done thereafter with distilled-deionised water. Inhibitor and enzyme solutions were pre-incubated together for 15 min–2 h (or longer, i.e. 4–6 h) at room temperature (at 4 °C for the incubation periods longer than 15 min) prior to assay, in order to allow for the formation of the E-I complex. The inhibition constants were obtained by non-linear least-squares methods using PRISM 3 and the Cheng-Prusoff equation[25] ^, [26], as reported earlier, and represent the mean from at least three different determinations. hCA I was purchased by Sigma-Aldrich and used without further purification, whereas all the other hCA isoforms were recombinant ones obtained in-house as reported earlier[27] ^, [28].

hCA I = hCA I (Homo sapiens, UniProt P00915); test: stopped-flow CO2 hydrase assay, hCA I
hCA I, sequence (P00915 whole entry): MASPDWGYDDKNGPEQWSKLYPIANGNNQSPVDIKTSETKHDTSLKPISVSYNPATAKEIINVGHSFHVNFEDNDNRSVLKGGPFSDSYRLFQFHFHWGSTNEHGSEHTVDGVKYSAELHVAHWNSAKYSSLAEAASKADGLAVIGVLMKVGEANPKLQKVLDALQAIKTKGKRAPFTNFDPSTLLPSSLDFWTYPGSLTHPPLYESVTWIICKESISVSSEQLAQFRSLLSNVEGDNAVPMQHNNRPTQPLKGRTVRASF
Description: as §1

SMILES	Ki (hCA II) [nM]	Ki (hCA IX) [nM]	Selectivity ratio I/IX (hCA IX; KI hCA I / KI hCA IX)	Selectivity ratio II/IX (hCA IX; KI hCA II / KI hCA IX)	fold higher affinity than its rhenium complex 4a (hCA IX; hCA IX, Ki(3a) vs Ki(4a)) [fold]	melting point [°C]	Ki (hCA I) [nM]
NS(=O)(=O)c1ccc(-n2cc(-c3ccccn3)nn2)cc1 [3a, 4-(4–(2-pyridyl)-1H-1,2,3-triazol-1-yl)-benzenesulfonamide]	4.1	2.8	64.75	1.46	7	244 to 248	181
NS(=O)(=O)c1ccc(Cn2cc(-c3ccccn3)nn2)cc1 [3b, 4–(4-(2-pyridyl)-1H-1,2,3-triazol-1-ylmethyl)-benzenesulfonamide]	56.1	–	–	–	–	192 to 195	305
